Test results published in patent publication US20040192777A1, “Novel anticancer diterpene compounds, process and uses thereof” (COUNCIL OF SCIENTIFIC AND INDUSTRIAL, priority 2003, published 2004).

Columns and labels:
Type in all cases: cell-based
[1] = system: human lung cancer cells (A-549); experiment: In vitro cytotoxicity (SRB) against A-549; conditions: A-549 Lung; for Growth inhibition, %: 48 h
Experimental: (§1) The human cancer cell lines were obtained either from National center for cell science, Pune, India or National Cancer Institute, Frederick, MD, U.S.A. Cells were grown in tissue culture flasks in complete growth medium (RPMI-1640 medium with 2 mM glutamine, 100 μg/ml streptomycin, pH 7.4, sterilized by filtration and supplemented with 10% sterilized fetal calf serum and 100 units/ml penicillin before use) at 37° C. in an atmosphere of 5% CO2 and 90% relative humidity in a carbon dioxide incubator. The cells at subconfluent stage were harvested from the flask by treatment with trypsin (0.05% trypsin in PBS containing 0.02% EDTA) and suspended in complete growth medium. Cells with cell viability of more than 97% by trypan blue exclusion technique were used for determination of cytotoxicity.
(§2) Compound 1 was dissolved in DMSO (dimethyl sulphoxide) to obtain a stock solution of 20 mg/ml. The stock solution was serially diluted with complete growth medium containing 50 μg/ml of gentamycin to obtain three working test solutions of 200, 60 and 20 μg/ml.
(§3) The suspension of human cancer cell lines of required cell density in complete growth medium was prepared and cell suspension of each cell line was placed in 96-well tissue culture plate (100 μl per well) for control, Compound 1 and positive control(s). The blank wells for each cell line and concentration of test material were also included that contained equivalent amount of complete growth medium only. The plates were incubated at 37° C. in an atmosphere of 5% CO2 and 90% relative humidity in a carbon dioxide incubator. The experiment was carried out in triplicate.
(§4) After 24-hours of incubation, the working solutions of Compound 1 of different concentrations (100 μl) were added in the experimental wells and blanks whereas positive controls of required concentrations (100 μl) were added into wells for positive controls. The equivalent amount of complete growth medium was added to control set.
(§5) The plates were further incubated for 48-hours (at 37° C. in an atmosphere of 5% CO2 and 90% relative humidity in a carbon dioxide incubator) after addition of test material etc. and then the cell growth was stopped by gently layering of 50 μl of TCA (50% trichloroacetic acid) on top of the medium in all the wells. The plates were incubated at 4° C. for one hour to fix the cells attached to the bottom of the wells. Liquids of all the wells were gently pipetted out and discarded. The plates were washed five times with distilled water to remove TCA, growth medium, low molecular weight metabolites, serum proteins etc. Plates were air dried.
(§6) Cell growth was measured by staining with sulforhodamine B dye (SRB). The SRB solution (100 μl of 0.4% SRB in 1% acetic acid) was added to each well and the plates were incubated at room temperature for 30 minutes. The unbound SRB was quickly removed by washing the wells five times with 1% acetic acid and plates were air dried. Tris-buffer (100 μl of 0.01M, pH 10.4) was added to all the wells and plates were gently stirred for 5 minutes on a mechanical stirrer. The optical density was recorded on ELISA reader at 540 nm.
(§7) The cell growth in presence of test material was determined by subtracting mean OD value of respective blank from the mean OD value of experimental set. Like wise, cell growth in absence of test material (control set) and in presence of positive control was also determined. The per cent cell growth in presence of test material was determined considering the cell growth in absence of test material as 100% and in turn per cent inhibition was calculated.
(§8) The human cancer cell lines were grown, harvested and cytotoxicity was determined exactly as mentioned in Example 3 except that the test material used was Compound 2 that was dissolved in DMSO and three working test solutions were prepared of the same concentrations as in Example 3.

[2] = system: human liver cancer cells (Hep-2); experiment: In vitro cytotoxicity (SRB) against Hep-2; conditions: Hep-2 Liver
Experimental: The human cancer cell lines were obtained either from National center for cell science, Pune, India or National Cancer Institute, Frederick, MD, U.S.A. […] Cells with cell viability of more than 97% by trypan blue exclusion technique were used for determination of cytotoxicity. Compound 1 was dissolved in DMSO (dimethyl sulphoxide) to obtain a stock solution of 20 mg/ml. […] The blank wells for each cell line and concentration of test material were also included that contained equivalent amount of complete growth medium only. The plates were incubated at 37° C. in an atmosphere of 5% CO2 and 90% relative humidity in a carbon dioxide incubator. The experiment was carried out in triplicate. […] The equivalent amount of complete growth medium was added to control set. […] The plates were incubated at 4° C. for one hour to fix the cells attached to the bottom of the wells. Liquids of all the wells were gently pipetted out and discarded. The plates were washed five times with distilled water to remove TCA, growth medium, low molecular weight metabolites, serum proteins etc. Plates were air dried. Cell growth was measured by staining with sulforhodamine B dye (SRB). […] The optical density was recorded on ELISA reader at 540 nm. The cell growth in presence of test material was determined by subtracting mean OD value of respective blank from the mean OD value of experimental set. Like wise, cell growth in absence of test material (control set) and in presence of positive control was also determined. […] The human cancer cell lines were grown, harvested and cytotoxicity was determined exactly as mentioned in Example 3 except that the test material used was Compound 2 that was dissolved in DMSO and three working test solutions were prepared of the same concentrations as in Example 3.

[3] = system: human ovary cancer cells (OVCAR-5); experiment: In vitro cytotoxicity (SRB) against OVCAR-5; conditions: OVCAR-5 Ovary; for Growth inhibition, %: 48 h
Experimental: as §1, §2, §3, §4, §5, §6, §7, §8

[4] = system: human CNS cancer cells (SK-N-MC); experiment: In vitro cytotoxicity (SRB) against SK-N-MC; conditions: 48 h
Experimental: as §1, §2, §3, §4, §5, §6, §7, §8

[5] = system: human colon cancer cells (HT-29); experiment: In vitro cytotoxicity (SRB) against HT-29; conditions: HT-29 Colon
Experimental: as §1, §2, §3, §4, §5, §6, §7, §8

[6] = system: human prostate cancer cell line PC-3; experiment: In vitro cytotoxicity (SRB) against PC-3; conditions: PC-3 Prostate
Experimental: as §1, §2, §3, §4, §5, §6, §7, §8

[7] = system: human cervix cancer cell line (SiHa); experiment: In vitro cytotoxicity (SRB) against SiHa
Experimental: as §1, §2, §3, §4, §5, §6, §7, §8

[8] = system: human lung cancer cell line HOP-62; experiment: In vitro cytotoxicity (SRB) against HOP-62; conditions: HOP-62 Lung; for Growth inhibition, %: 48 h
Experimental: as §1, §2, §3, §4, §5, §6, §7, §8

[9] = system: human cancer cell lines; experiment: In vitro cytotoxicity (SRB), span over the cell line panel; conditions: at 100 μg/ml, all human cancer cell lines studied except HOP-62
Experimental: as §1, with “cytotoxicity. […]” for “cytotoxicity.”
Cell growth was measured by staining with sulforhodamine B dye (SRB). […] The optical density was recorded on ELISA reader at 540 nm.
as §7, with “calculated. […]” for “calculated.”

[10] = Homo sapiens, 1 × 10^−4M, positive control, read-out: Growth inhibition, %
[11] = Homo sapiens, 1 × 10^−5M, positive control, read-out: Growth inhibition, %

C=C[C@]1(C)C=C2CCC3[C@@](C)(CCC[C@@]3(C)C(=O)O)C2CC1 (stereo partly drawn) [Compound 1, ent-pimmarane 8(14),15-diene-19 oic acid]
Growth inhibition, % ([1]; 10 μg/ml): 13% | Growth inhibition, % ([1]; 30 μg/ml): 72% | Growth inhibition, % ([1]; 100 μg/ml): 94% | Growth inhibition, % ([2]; 10 μg/ml, 48 h): 20% | Growth inhibition, % ([2]; 30 μg/ml, 48 h): 68% | Growth inhibition, % ([2]; 100 μg/ml, 48 h): 80% | Growth inhibition, % ([3]; 10 μg/ml): 00% | Growth inhibition, % ([3]; 30 μg/ml): 66% | Growth inhibition, % ([3]; 100 μg/ml): 76% | Growth inhibition, % ([4]; 10 μg/ml): 00% | Growth inhibition, % ([4]; 30 μg/ml): 75% | Growth inhibition, % ([4]; 100 μg/ml): 88% | Growth inhibition, % ([5]; 10 μg/ml, 48 h): 02% | Growth inhibition, % ([5]; 30 μg/ml, 48 h): 70% | Growth inhibition, % ([5]; 100 μg/ml, 48 h): 94% | Growth inhibition, % ([6]; 10 μg/ml, 48 h): 05% | Growth inhibition, % ([6]; 30 μg/ml, 48 h): 78% | Growth inhibition, % ([6]; 100 μg/ml, 48 h): 97% | Growth inhibition, % ([7]; 10 μg/ml, 48 h): 00% | Growth inhibition, % ([7]; 30 μg/ml, 48 h): 14% | Growth inhibition, % ([7]; 100 μg/ml, 48 h): 41% | Growth inhibition, % ([8]; 10 μg/ml): 00% | Growth inhibition, % ([8]; 30 μg/ml): 00% | Growth inhibition, % ([8]; 100 μg/ml): 03% | inhibition of cell growth, span over the cell lines [9]: 41-97%

C=CC1(C)CC=C2C(=CCC3C(C)(C(=O)O)CCCC23C)C1 (stereo not drawn) [Compound 2, ent-pimmarane 7(8),9(11),15 triene-19 oic acid]
Growth inhibition, % ([1]; 10 μg/ml): 09% | Growth inhibition, % ([1]; 30 μg/ml): 71% | Growth inhibition, % ([1]; 100 μg/ml): 97% | Growth inhibition, % ([2]; 10 μg/ml, 48 h): 18% | Growth inhibition, % ([2]; 30 μg/ml, 48 h): 70% | Growth inhibition, % ([2]; 100 μg/ml, 48 h): 91% | Growth inhibition, % ([3]; 10 μg/ml): 12% | Growth inhibition, % ([3]; 30 μg/ml): 67% | Growth inhibition, % ([3]; 100 μg/ml): 96% | Growth inhibition, % ([4]; 10 μg/ml): 22% | Growth inhibition, % ([4]; 30 μg/ml): 85% | Growth inhibition, % ([4]; 100 μg/ml): 92% | Growth inhibition, % ([5]; 10 μg/ml, 48 h): 00% | Growth inhibition, % ([5]; 30 μg/ml, 48 h): 70% | Growth inhibition, % ([5]; 100 μg/ml, 48 h): 95% | Growth inhibition, % ([6]; 10 μg/ml, 48 h): 00% | Growth inhibition, % ([6]; 30 μg/ml, 48 h): 83% | Growth inhibition, % ([6]; 100 μg/ml, 48 h): 94% | Growth inhibition, % ([7]; 10 μg/ml, 48 h): 00% | Growth inhibition, % ([7]; 30 μg/ml, 48 h): 8% | Growth inhibition, % ([7]; 100 μg/ml, 48 h): 38% | Growth inhibition, % ([8]; 10 μg/ml): 00% | Growth inhibition, % ([8]; 30 μg/ml): 00% | Growth inhibition, % ([8]; 100 μg/ml): 00% | inhibition of cell growth, span over the cell lines [9]: 38-97%

O=c1[nH]cc(F)c(=O)[nH]1 [Compound 5FU, reference compound]
Growth inhibition, % ([5]; 1 × 10^−4M, positive control): 43% | Growth inhibition, % ([7]; 1 × 10^−4M, positive control): 17%

CO[C@@]12[C@H](COC(N)=O)C3=C(C(=O)C(C)=C(N)C3=O)N1C[C@@H]1N[C@@H]12 [Mytomycin C, reference compound]
Growth inhibition, % ([2]; 1 × 10^−5M, positive control): 87% | Growth inhibition, % ([6]; 1 × 10^−5M, positive control): 78%

CC/C(=C(\c1ccccc1)c1ccc(OCCN(C)C)cc1)c1ccccc1 [Tamoxifen, reference compound]
inhibition at 100 µM ([1]; Homo sapiens, A549, 1 × 10^−4M, positive control, read-out: Growth inhibition, %): 98% | inhibition at 10 µM ([1]; Homo sapiens, A549, 1 × 10^−5M, positive control, read-out: Growth inhibition, %): 19% | inhibition at 100 µM [3, 10]: 100% | inhibition at 10 µM [3, 11]: 0% | inhibition at 100 µM [8, 10]: 20% | inhibition at 10 µM [8, 11]: 2%
